Reference: patent US20100120715A1, “BETA-LACTAMASE INHIBITORS” (priority 2007, published 2010)
Read-outs that look alike come from different tables or passages of the source.

How the values were obtained:
[1] = biological target: T1, Class A ESBL SHV-5 (Klebsiella pneumoniae, UniProt P0A3M1); format: biochemical, E. coli; details: nitrocefin 100 μM, PBS pH 7.0, read-out: SHV-5 IC50 Range
T1 construct: made in house; host or cells: E. coli BL21(DE3) for purified enzyme; E. coli cells containing SHV-5 for extracts
T1 sequence (P0A3M1 22-286): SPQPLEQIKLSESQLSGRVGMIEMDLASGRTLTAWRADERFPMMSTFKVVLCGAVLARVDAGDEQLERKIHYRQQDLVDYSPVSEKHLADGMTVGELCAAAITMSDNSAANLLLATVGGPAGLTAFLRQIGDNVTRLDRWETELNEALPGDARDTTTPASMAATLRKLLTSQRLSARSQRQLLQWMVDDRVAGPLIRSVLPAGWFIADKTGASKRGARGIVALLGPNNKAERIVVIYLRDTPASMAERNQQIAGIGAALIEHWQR
Method: (§1) Isolation of β-lactamases. For all examples, purified beta-lactamase enzymes were used to measure a compounds' ability to inhibit the Class A ESBL CTXM-15, the Class C P99 AmpC and the Class A carbapenemase KPC-2. […] The enzyme preparations are described herein.
For the preparation of SHV-5 extracts, E. coli cells containing SHV-5 were cultured overnight with shaking at a volume of 20 mL. They were further diluted 10-fold and grown to mid-log phase (OD at 600 nm, 0.5-0.8) in Mueller-Hinton II (MH-II) broth at 37° C. The cells were pelleted at 5000 g, washed and resuspended in 2 mL PBS pH 7.0. The β-lactamase was extracted by four cycles of freezing and thawing followed by centrifugation. β-lactamase activity in the extract was measured with the chromogenic cephalosporin nitrocefin. The amount of protein in each β-lactamase preparation was determined by the bicinchoninic acid (BCA) assay.
(§2) For the isolation and purification of SHV-5, p99 AmpC, KPC-2 and CTX-M15 β-lactamases, E. coli BL21(DE3) bacterial cells carrying expression plasmids (expressed as native untagged proteins) for the individual β-lactamases were grown in 1 L of Superbroth (Teknova Inc. Hollister, Calif.) supplemented with 100 μg/ml kanamycin and 1×5052 (0.5% glycerol, 0.05% glucose and 0.2% α-lactose) at 35° C. for 18-20 hours. Cells were harvested by centrifugation (4,000×g, 4° C., 20 min), and resuspended in 50 ml of 10 mM HEPES pH 7.5 ( 1/20 of the initial volume). The cells were lysed by sonication (5 pulses of 45 seconds) at 45 W on ice. The lysates were clarified by centrifugation at 10,000×g for 40 minutes at 4° C. Samples were diluted 5-fold in 50 mM sodium acetate pH 5.0, stored overnight at 4° C., after which they were centrifuged at 10,000×g for 30 minutes to clarify, and filtered through 0.45 μm filters. The samples were loaded onto a 5 ml Capto S sepharose cation exchange column (GE Healthcare) pre-equilibrated with 50 mM sodium acetate pH 5.0. The column was washed with 5 column volumes of 50 mM sodium acetate pH 5.0 to wash out unbound protein and a linear gradient of NaCl (0 to 500 mM) was used to elute the protein (over 16 CV) from the column. Fractions were assayed for β-lactamase activity using Centa (Calbiochem, Gibbstown, N.J.) as a reporter β-lactamase substrate for activity in the isolated fractions. Active fractions were pooled, concentrated and further purified by gel filtration chromatography on a Superdex 75 prep grade gel filtration column (GE Healthcare, Piscataway, N.J.) pre-equilibrated in 50 mM Hepes pH 7.5, 150 mM NaCl. Active fractions were pooled concentrated, quantitated by BCA protein determination (Thermo Scientific, Rockford, Ill.), and frozen at −80° C. in 20% glycerol until use.
(§3) β-lactamase Inhibition. To determine the level of inhibition of β-lactamaseenzymes, compounds were diluted in PBS at pH 7.0 to yield concentrations between 100 and 0.005 μM in microtiter plates. An equal volume of diluted enzyme stock was added, and the plates were incubated at 37° C. for 10 min. Nitrocefin solution was then dispensed as substrate into each well at a final concentration of 100 μM, and the plates were immediately read with the kinetic program at 486 nm for 10 min on the SPECTRAMAX® Plus^384 (high-throughput microplate spectrophotometer; Molecular Devices Corp., Sunnyvale, Calif.). Maximum rates of metabolism were then compared to those in control wells (without inhibitors), and percentages of enzyme inhibition were calculated for each concentration of inhibitor. The concentration of inhibitor needed to reduce the initial rate of hydrolysis of substrate by 50% (IC50) was calculated as the residual activity of β-lactamase at 486 nm using the SoftMax Pro 5.0 software (Molecular Devices Corp.).

[2] = test system: K. pneumoniae expressing the Class A ESBL CTX-M-15; experiment: microbe, parasite or virus in culture; format: cell-based; details: in the presence of fixed 8 μg/mL Ceftazidime
From the text: To determine the ability of test compounds to potentiate the inhibition of the growth of bacterial strains producing beta-lactamase enzymes, classic cell based screening assays were employed. Four bacteria strains producing beta-lactamase enzymes were used: K. pneumoniae expressing the Class A Extended Spectrum Beta-Lactamase (ESBL) CTX-M-15, E. coli expressing the Class A ESBL SHV-5, E. cloacae expressing the Class C P99+, and K. pneumoniae expressing the Class A carbapenemase KPC-2. In order to evaluate the ability of test compounds to inhibit beta-lactamase activity, Applicants used a modification of the broth microdilution assay. The assay was conducted in Cation Adjusted Mueller Hinton Broth (CAMHB, BD # 212322, BD Diagnostic Systems, Sparks, Md.). Bacteria strains were grown for 3-5 hours in CAMBH broth. All four strains were grown in presence of 50 μg/mL ampicillin to ensure resistance is maintained. In the meantime, test compounds were diluted in DMSO to a 0.1 mg/mL stock. The compounds were added to a microtiter plate and were diluted in 2-fold serial dilutions in CAMHB in a final concentration range of 8 μg/mL to 0.015 μg/ml. […] […] Each of these compound plates are made in quadruplicate, one for each bacteria strain. In addition to the titration of test compounds the MICs of a panel of cephalosporins is also tested to ensure the strains are behaving consistently from test to test. Once the test compound and cephalosporin are added the plates can be inoculated. Inocula are conducted according to CLSI broth microdilution method. After inoculation the plates are incubated for 16-20 hours at 37° C. then the Minimal Inhibitory Concentration (MIC) of the test compound is determined visually.

[3] = biological target: T2, Class A ESBL CTXM-15 (Escherichia coli, UniProt Q9EXV5); experiment: β-lactamase enzyme inhibition (nitrocefin hydrolysis), CTXM-15; format: biochemical; details: purified enzyme; nitrocefin 100 μM, PBS pH 7.0; read-out: CTXM-15 IC50 Range
T2 construct: made in house; host or cells: E. coli BL21(DE3)
T2 sequence (Q9EXV5 entry or part of it): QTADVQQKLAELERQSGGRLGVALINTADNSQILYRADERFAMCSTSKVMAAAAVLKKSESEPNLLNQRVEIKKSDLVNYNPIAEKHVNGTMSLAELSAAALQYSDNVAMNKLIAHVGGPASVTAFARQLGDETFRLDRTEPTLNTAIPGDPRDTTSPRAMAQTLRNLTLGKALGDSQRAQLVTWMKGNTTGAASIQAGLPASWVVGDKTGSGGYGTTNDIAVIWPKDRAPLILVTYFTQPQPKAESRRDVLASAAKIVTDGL
Method: as §1, §2, §3

[4] = biological target: T3, Class C P99 AmpC (Enterobacter cloacae, UniProt P05364); format: biochemical; details: purified enzyme; nitrocefin 100 μM, PBS pH 7.0; read-out: P99 AmpC IC50 Range
T3 construct: made in house; host or cells: E. coli BL21(DE3)
T3 sequence (P05364 21-381): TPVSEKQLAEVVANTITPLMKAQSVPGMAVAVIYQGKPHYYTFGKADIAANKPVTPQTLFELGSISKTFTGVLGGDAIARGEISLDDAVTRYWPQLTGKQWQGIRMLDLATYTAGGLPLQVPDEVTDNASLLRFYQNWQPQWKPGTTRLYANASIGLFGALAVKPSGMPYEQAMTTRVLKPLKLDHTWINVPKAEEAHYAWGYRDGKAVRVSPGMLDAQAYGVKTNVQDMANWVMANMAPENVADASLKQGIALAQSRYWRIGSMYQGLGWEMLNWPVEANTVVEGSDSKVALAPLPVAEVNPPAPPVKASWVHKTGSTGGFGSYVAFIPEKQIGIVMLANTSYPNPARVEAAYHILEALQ
Method: as §1, §2, §3

[5] = test system: K. pneumoniae expressing the Class A carbapenemase KPC-2; experiment: microbe, parasite or virus in culture; details: in the presence of fixed 8 μg/mL Ceftazidime
From the text: To determine the ability of test compounds to potentiate the inhibition of the growth of bacterial strains producing beta-lactamase enzymes, classic cell based screening assays were employed. Four bacteria strains producing beta-lactamase enzymes were used: K. pneumoniae expressing the Class A Extended Spectrum Beta-Lactamase (ESBL) CTX-M-15, E. coli expressing the Class A ESBL SHV-5, E. cloacae expressing the Class C P99+, and K. pneumoniae expressing the Class A carbapenemase KPC-2. In order to evaluate the ability of test compounds to inhibit beta-lactamase activity, Applicants used a modification of the broth microdilution assay. The assay was conducted in Cation Adjusted Mueller Hinton Broth (CAMHB, BD # 212322, BD Diagnostic Systems, Sparks, Md.). Bacteria strains were grown for 3-5 hours in CAMBH broth. All four strains were grown in presence of 50 μg/mL ampicillin to ensure resistance is maintained. In the meantime, test compounds were diluted in DMSO to a 0.1 mg/mL stock. The compounds were added to a microtiter plate and were diluted in 2-fold serial dilutions in CAMHB in a final concentration range of 8 μg/mL to 0.015 μg/ml. An overlay of CAMHB containing a cephalosporin was added to the compounds at a final static concentration of 8 μg/ml. […] Each of these compound plates are made in quadruplicate, one for each bacteria strain. In addition to the titration of test compounds the MICs of a panel of cephalosporins is also tested to ensure the strains are behaving consistently from test to test. Once the test compound and cephalosporin are added the plates can be inoculated. Inocula are conducted according to CLSI broth microdilution method. After inoculation the plates are incubated for 16-20 hours at 37° C. then the Minimal Inhibitory Concentration (MIC) of the test compound is determined visually.

[6] = biological target: T4, Class A carbapenemase KPC-2 (Klebsiella pneumoniae, UniProt Q9F663); experiment: β-lactamase enzyme inhibition (nitrocefin hydrolysis), KPC-2; format: biochemical; details: purified enzyme; nitrocefin 100 μM, PBS pH 7.0; read-out: KPC-2 IC50 Range
T4 construct: made in house; host or cells: E. coli BL21(DE3)
T4 sequence (Q9F663 25-293 limits assumed): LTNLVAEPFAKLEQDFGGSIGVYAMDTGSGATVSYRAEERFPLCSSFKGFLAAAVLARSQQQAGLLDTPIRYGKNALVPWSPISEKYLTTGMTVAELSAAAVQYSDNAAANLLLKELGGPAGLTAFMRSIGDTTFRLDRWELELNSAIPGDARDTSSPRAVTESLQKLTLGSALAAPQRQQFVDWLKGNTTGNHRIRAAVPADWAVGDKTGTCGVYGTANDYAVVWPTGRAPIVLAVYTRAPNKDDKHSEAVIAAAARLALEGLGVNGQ
Method: as §1, §2, §3

[7] = cellular extracts of E. coli containing SHV-5 (Examples 2-30)

| SMILES | IC50 [1, 7] | MIC of example compound, K. pneumoniae CTX-M-15 + 8 μg/mL CAZ [2] | IC50 [3] | IC50 [4] | MIC of example compound, K. pneumoniae KPC-2 + 8 μg/mL CAZ [5] | IC50 [6] | IC50 ([1]; purified beta-lactamase enzyme (Examples 1 and 31-64)) |
| --- | --- | --- | --- | --- | --- | --- | --- |
| CC(=O)N[C@@H](Cc1cccc(C(=O)O)c1O)B(O)O [Example 6, (1R)-1-(2-acetylamino)-2-(2-hydroxy-3-carboxyphenyl)ethyl-1-boronic acid] | 100 to 1000 nM | C (C represents an MIC of <1 μg/mL) | < 10 nM | 10 to 100 nM | C (C represents an MIC of <1 μg/mL) | – | – |
| NC(=O)COc1cccc(CC(=O)N[C@@H](Cc2cccc(C(=O)O)c2O)B(O)O)c1 [Example 8, (1R)-1-[(3-carbamoylmethoxy)-phenyl]-acetylamino-(3-carboxy-2-hydroxy), benzyl-methylboronic acid] | < 10 nM | C (C represents an MIC of <1 μg/mL) | < 10 nM | < 10 nM | C (C represents an MIC of <1 μg/mL) | – | – |
| N[C@H](C(=O)N[C@@H](Cc1cccc(C(=O)O)c1O)B(O)O)c1ccccc1.O=CO [Example 12, (1R,2′S)-1-(2-amino-2-phenylacetylamino)-2-(2-hydroxy-3-carboxyphenyl)ethyl-1-boronic acid formate salt] | 100 to 1000 nM | C (C represents an MIC of <1 μg/mL) | 10 to 100 nM | 100 to 1000 nM | C (C represents an MIC of <1 μg/mL) | – | – |
| O=C(Cc1cc(O)ccc1O)N[C@@H](Cc1cccc(C(=O)O)c1O)B(O)O [Example 18, (1R)-1-(2-(2,5-dihydroxyphenyl)acetylamino)-2-(2-hydroxy-3-carboxyphenyl)ethyl-1-boronic acid] | < 10 nM | C (C represents an MIC of <1 μg/mL) | < 10 nM | < 10 nM | – | < 10 nM | – |
| O=C(COCc1ccccc1)N[C@@H](Cc1cccc(C(=O)O)c1O)B(O)O [Example 22, (1R)-1-(2-benzyloxyacetylamino)-2-(2-hydroxy-3-carboxyphenyl)ethyl-1-boronic acid] | < 10 nM | C (C represents an MIC of <1 μg/mL) | < 10 nM | 10 to 100 nM | C (C represents an MIC of <1 μg/mL) | < 10 nM | – |
| CCCCCCC(=O)N[C@@H](Cc1cccc(C(=O)O)c1O)B(O)O [Example 24, (1R)-1-(heptanoylamino)-2-(2-hydroxy-3-carboxyphenyl)ethyl-1-boronic acid] | < 10 nM | C (C represents an MIC of <1 μg/mL) | < 10 nM | < 10 nM | C (C represents an MIC of <1 μg/mL) | 10 to 100 nM | – |
| CC(C)(C)CC(=O)N[C@@H](Cc1cccc(C(=O)O)c1O)B(O)O [Example 25, (1R)-1-(3,3-Dimethyl-butyrylamino)-(3-carboxy-2-hydroxy)benzyl-methylboronic acid] | 10 to 100 nM | C (C represents an MIC of <1 μg/mL) | 10 to 100 nM | 10 to 100 nM | C (C represents an MIC of <1 μg/mL) | 10 to 100 nM | – |
| O=C(N[C@@H](Cc1cccc(C(=O)O)c1O)B(O)O)c1cccc(O)c1 [Example 28, (1R)-1-(3-hydroxybenzoylamino)-2-(2-hydroxy-3-carboxyphenyl)ethyl-1-boronic acid] | 10 to 100 nM | C (C represents an MIC of <1 μg/mL) | < 10 nM | < 10 nM | C (C represents an MIC of <1 μg/mL) | 10 to 100 nM | – |
| O=C(N[C@@H](Cc1cccc(C(=O)O)c1O)B(O)O)c1ccc(Cl)nc1 [Example 31, (1R)-1-(6-Chloro-pyridine-3-carbonyl)-amino-1-(3-carboxy-2-hydroxy)benzyl-methylboronic acid] | – | C (C represents an MIC of <1 μg/mL) | < 10 nM | < 10 nM | C (C represents an MIC of <1 μg/mL) | < 10 nM | < 10 nM |
